# Laboratory results published in ChEMBL document CHEMBL1201862, “PubChem BioAssay data set” (2004).
#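 Tested at 5 concentrations; 48 h exposure; 96-well plates; endpoints linearly interpolated, else capped at highest concentration. GI50 = concentration required for 50% inhibition of growth.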 Active and inactive are the calls of the source. Cut-off read from the data, not from the text of the source: active = GI50 up to about 1.1 µM and inactive = higher.
# Key:
# Assay in all cases: NCI anticancer screen, dose series, 48 h
# SK-OV-3 = system: SK-OV-3
# HOP-62 = system: HOP-62
# IGROV-1 = system: IGROV-1
# SN12C = system: SN12C
# UACC-62 = system: UACC-62
# HL-60 = system: HL-60
# SW-620 = system: SW-620
# SK-MEL-28 = system: SK-MEL-28
# RPMI-8226 = system: RPMI-8226
# SK-MEL-2 = system: SK-MEL-2
# ACHN = system: ACHN
# DLD-1 = system: DLD-1
# HT-29 = system: HT-29
# UO-31 = system: UO-31
# OVCAR-3 = system: OVCAR-3
# 786-0 = system: 786-0
# UACC-257 = system: UACC-257
# DMS-114 = system: DMS-114
# SNB-75 = system: SNB-75
# SF-539 = system: SF-539
# COLO 205 = system: COLO 205
# NCI-H460 = system: NCI-H460
# HOP-92 = system: HOP-92
# XF498 = system: XF498
# OVCAR-8 = system: OVCAR-8
# CCRF-CEM = system: CCRF-CEM
# HCT-116 = system: HCT-116
# SNB-19 = system: SNB-19
# LXFL 529 = system: LXFL 529
# M14 = system: M14
# HCT-15 = system: HCT-15
# K562 = system: K562
# MOLT-4 = system: MOLT-4
# NCI-H23 = system: NCI-H23
# SF-295 = system: SF-295
# A549 = system: A549
# HOP-18 = system: HOP-18
# RXF 393 = system: RXF 393
# SNB-78 = system: SNB-78
# U-251 = system: U-251
# OVCAR-4 = system: OVCAR-4
# SR = system: SR
# KM-20L2 = system: KM-20L2
# KM12 = system: KM12
# EKVX = system: EKVX
# DMS-273 = system: DMS-273
# CAKI-1 = system: CAKI-1
# A498 = system: A498
# HCC 2998 = system: HCC 2998
# M19-MEL = system: M19-MEL
# SK-MEL-5 = system: SK-MEL-5
# TK-10 = system: TK-10
# OVCAR-5 = system: OVCAR-5
# Malme-3M = system: Malme-3M
# NCI-H522 = system: NCI-H522
# SF-268 = system: SF-268
# NCI-H226 = system: NCI-H226
# LOX IMVI = system: LOX IMVI
compound,measurement,setting,value
CCOC(=O)C1=C(C)N(Cc2ccccc2)C(=O)C1CC#N (configuration not stated),GI50,SK-OV-3,> 100 µM (inactive)
same,GI50,HOP-62,> 100 µM (inactive)
same,GI50,IGROV-1,> 100 µM (inactive)
same,GI50,SN12C,> 100 µM (inactive)
same,GI50,UACC-62,80 µM (inactive)
same,GI50,HL-60,26.7 µM (inactive)
same,GI50,SW-620,34 µM (inactive)
same,GI50,SK-MEL-28,> 100 µM (inactive)
same,GI50,RPMI-8226,99.8 µM (inactive)
same,GI50,SK-MEL-2,> 100 µM (inactive)
same,GI50,ACHN,> 100 µM (inactive)
same,GI50,DLD-1,56.1 µM (inactive)
same,GI50,HT-29,> 100 µM (inactive)
same,GI50,UO-31,> 100 µM (inactive)
same,GI50,OVCAR-3,> 100 µM (inactive)
same,GI50,786-0,> 100 µM (inactive)
same,GI50,UACC-257,> 100 µM (inactive)
same,GI50,DMS-114,45.1 µM (inactive)
same,GI50,SNB-75,55.2 µM (inactive)
same,GI50,SF-539,> 100 µM (inactive)
same,GI50,COLO 205,> 100 µM (inactive)
same,GI50,NCI-H460,> 100 µM (inactive)
same,GI50,HOP-92,20.7 µM (inactive)
same,GI50,XF498,< 0.01 µM (active)
same,GI50,OVCAR-8,83.9 µM (inactive)
same,GI50,CCRF-CEM,31.6 µM (inactive)
same,GI50,HCT-116,> 100 µM (inactive)
same,GI50,SNB-19,> 100 µM (inactive)
same,GI50,LXFL 529,43.4 µM (inactive)
same,GI50,M14,> 100 µM (inactive)
same,GI50,HCT-15,> 100 µM
same,GI50,K562,70.3 µM (inactive)
same,GI50,MOLT-4,55.3 µM (inactive)
same,GI50,NCI-H23,> 100 µM (inactive)
same,GI50,SF-295,> 100 µM (inactive)
same,GI50,A549,> 100 µM (inactive)
same,GI50,HOP-18,17 µM (inactive)
same,GI50,RXF 393,56 µM (inactive)
same,GI50,SNB-78,37.2 µM (inactive)
same,GI50,U-251,> 100 µM (inactive)
same,GI50,OVCAR-4,47.1 µM (inactive)
same,GI50,SR,49.8 µM (inactive)
same,GI50,KM-20L2,> 100 µM (inactive)
same,GI50,KM12,> 100 µM (inactive)
same,GI50,EKVX,> 100 µM (inactive)
same,GI50,DMS-273,> 100 µM (inactive)
same,GI50,CAKI-1,> 100 µM (inactive)
same,GI50,A498,> 100 µM (inactive)
same,GI50,HCC 2998,> 100 µM (inactive)
same,GI50,M19-MEL,> 100 µM (inactive)
CC12C(=O)N(CCN)C(=O)C1C1c3ccccc3C2c2ccccc21 (configuration not stated),GI50,SK-OV-3,> 100 µM (inactive)
same,GI50,HOP-62,> 100 µM (inactive)
same,GI50,IGROV-1,> 100 µM (inactive)
same,GI50,SN12C,> 100 µM (inactive)
same,GI50,SK-MEL-5,> 100 µM (inactive)
same,GI50,UACC-62,> 100 µM (inactive)
same,GI50,HL-60,77.8 µM (inactive)
same,GI50,SW-620,> 100 µM (inactive)
same,GI50,TK-10,> 100 µM (inactive)
same,GI50,SK-MEL-28,> 100 µM (inactive)
same,GI50,RPMI-8226,> 100 µM (inactive)
same,GI50,OVCAR-5,> 100 µM (inactive)
same,GI50,SK-MEL-2,> 100 µM (inactive)
same,GI50,ACHN,> 100 µM (inactive)
same,GI50,DLD-1,> 100 µM (inactive)
same,GI50,HT-29,58.3 µM (inactive)
same,GI50,Malme-3M,> 100 µM (inactive)
same,GI50,UO-31,> 100 µM (inactive)
same,GI50,OVCAR-3,> 100 µM (inactive)
same,GI50,786-0,> 100 µM (inactive)
same,GI50,UACC-257,> 100 µM (inactive)
same,GI50,DMS-114,> 100 µM (inactive)
same,GI50,NCI-H522,> 100 µM (inactive)
same,GI50,SNB-75,37.3 µM (inactive)
same,GI50,SF-539,> 100 µM (inactive)
same,GI50,COLO 205,> 100 µM (inactive)
same,GI50,NCI-H460,> 100 µM (inactive)
same,GI50,HOP-92,28.9 µM (inactive)
same,GI50,XF498,> 100 µM (inactive)
same,GI50,OVCAR-8,> 100 µM (inactive)
same,GI50,CCRF-CEM,> 100 µM (inactive)
same,GI50,HCT-116,> 100 µM (inactive)
same,GI50,SNB-19,> 100 µM (inactive)
same,GI50,LXFL 529,> 100 µM (inactive)
same,GI50,M14,> 100 µM (inactive)
same,GI50,HCT-15,> 100 µM
same,GI50,K562,> 100 µM (inactive)
same,GI50,MOLT-4,> 100 µM (inactive)
same,GI50,NCI-H23,> 100 µM (inactive)
same,GI50,SF-295,> 100 µM (inactive)
same,GI50,A549,> 100 µM (inactive)
same,GI50,HOP-18,> 100 µM (inactive)
same,GI50,SNB-78,> 100 µM (inactive)
same,GI50,U-251,> 100 µM (inactive)
same,GI50,OVCAR-4,> 100 µM (inactive)
same,GI50,SF-268,> 100 µM (inactive)
same,GI50,KM-20L2,> 100 µM (inactive)
same,GI50,NCI-H226,> 100 µM (inactive)
same,GI50,KM12,> 100 µM (inactive)
same,GI50,EKVX,> 100 µM (inactive)
same,GI50,DMS-273,> 100 µM (inactive)
same,GI50,CAKI-1,> 100 µM (inactive)
same,GI50,A498,> 100 µM (inactive)
same,GI50,HCC 2998,> 100 µM (inactive)
same,GI50,M19-MEL,> 100 µM (inactive)
O=c1c(O)c(-c2ccc(O)c(O)c2)oc2cc(O)ccc12 [FISETIN],GI50,SK-OV-3,9.66 µM (inactive)
same,GI50,HOP-62,20.2 µM (inactive)
same,GI50,IGROV-1,18.6 µM (inactive)
same,GI50,SN12C,20.8 µM (inactive)
same,GI50,SK-MEL-5,13.1 µM (inactive)
same,GI50,UACC-62,10.7 µM (inactive)
same,GI50,HL-60,28.7 µM (inactive)
same,GI50,SW-620,23.8 µM (inactive)
same,GI50,TK-10,29.7 µM (inactive)
same,GI50,SK-MEL-28,21.7 µM (inactive)
same,GI50,RPMI-8226,26.8 µM (inactive)
same,GI50,OVCAR-5,17.2 µM (inactive)
same,GI50,SK-MEL-2,8.75 µM (inactive)
same,GI50,ACHN,18.7 µM (inactive)
same,GI50,DLD-1,20.2 µM (inactive)
same,GI50,HT-29,25.8 µM (inactive)
same,GI50,Malme-3M,20.4 µM (inactive)
same,GI50,UO-31,14.5 µM (inactive)
same,GI50,OVCAR-3,19.9 µM (inactive)
same,GI50,786-0,24.8 µM (inactive)
same,GI50,UACC-257,22.3 µM (inactive)
same,GI50,DMS-114,15.2 µM (inactive)
same,GI50,NCI-H522,13.6 µM (inactive)
same,GI50,SNB-75,5.27 µM (inactive)
same,GI50,SF-539,12 µM (inactive)
same,GI50,COLO 205,47.4 µM (inactive)
same,GI50,NCI-H460,8.05 µM (inactive)
same,GI50,HOP-92,28.2 µM (inactive)
same,GI50,XF498,20.9 µM (inactive)
same,GI50,OVCAR-8,21.8 µM (inactive)
same,GI50,CCRF-CEM,8.99 µM (inactive)
same,GI50,HCT-116,16.3 µM (inactive)
same,GI50,LOX IMVI,13.6 µM (inactive)
same,GI50,SNB-19,10.7 µM (inactive)
same,GI50,LXFL 529,15 µM (inactive)
same,GI50,M14,18.2 µM (inactive)
same,GI50,HCT-15,14.4 µM
same,GI50,K562,25 µM (inactive)
same,GI50,MOLT-4,17 µM (inactive)
same,GI50,NCI-H23,11.6 µM (inactive)
same,GI50,SF-295,18.5 µM (inactive)
same,GI50,A549,30.3 µM (inactive)
same,GI50,HOP-18,21.2 µM (inactive)
same,GI50,RXF 393,23.9 µM (inactive)
same,GI50,SNB-78,20.1 µM (inactive)
same,GI50,U-251,7.14 µM (inactive)
same,GI50,OVCAR-4,31 µM (inactive)
same,GI50,SR,18 µM (inactive)
same,GI50,SF-268,24.9 µM (inactive)
same,GI50,KM-20L2,27.2 µM (inactive)
same,GI50,NCI-H226,9.79 µM (inactive)
same,GI50,KM12,5.62 µM (inactive)
same,GI50,EKVX,25.4 µM (inactive)
same,GI50,DMS-273,11.5 µM (inactive)
same,GI50,A498,26.3 µM (inactive)
same,GI50,HCC 2998,18.1 µM (inactive)
same,GI50,M19-MEL,26 µM (inactive)
